Data reported in patent US10766869B2, “Triazoles for the treatment of demyelinating dieases” (Vertex Pharmaceuticals Incorporated, priority 2015, dated 2020).
Read-outs that look alike come from different tables or passages of the source.

Tests used:
[1] = tested on: C57BL/6 mice demyelinated with cuprizone; assay: In vivo mouse cuprizone assay (new myelin, MBP positive / MOG negative area); conditions: for effect measured as new myelin generated in response to compound treatment compared to control with no added compound: Regimen A (QD or BID for 14 days via oral gavage), various doses; for effect (new myelin generated compared to control): Regimen A, oral gavage
Description: Assays for Detecting and Measuring Remyelination Properties of Compounds In Vivo Mouse Cuprizone Assay:
Cuprizone Feeding Protocol:
2 month old female C57BL/6 mice (Stock Number: 000664) were purchased from Jackson Labs and fed for 4-10 months with a 0.2% cuprizone chow (provided by Research Diets, Product # D10020701R, Description AIN-76A Rodent Diet with 0.2% cuprizone) using cuprizone purchased from Sigma (Cat #14690-100G). Chow was provided ad libitum, and refreshed every 4 days to ensure stability of the cuprizone. Mice were maintained on this diet for 4-10 months before initiation of the experiments.
1) 24 hours prior to the start of dosing, 6 to 10 mice were switched from cuprizone chow to normal chow (Picolab rodent diet 20 EXT IRR 5053, irradiated) without added cuprizone. These mice were maintained on normal chow throughout the course of dosing.
2) 6 to 10 mice per group were randomized into new cages such that mice that were housed in one cage during the cuprizone diet were not housed together in one dose group during the study.
3) Mice were dosed with compound in one of two regimens: Regimen A: mice were dosed QD or BID for 14 days via oral gavage. Regimen B: mice were dosed QD or BID for 14 days via IP injection. However, other dosing schedules and/or routes of administration may also be used.
4) On the last day of dosing, dried blood spots were collected at multiple time points following the last dose. Often this was 30 minutes, 2, 6 and 24 hours following the final dose on day 14 via the tail vein.
Perfusion and Sectioning:
1) The day after the last day of dosing, mice were transcardially perfused with 12 ml of PBS (Sigma, P4417) followed by 20 ml of 3.2% paraformaldehyde in PBS (Electron Microscopy Sciences #15714-S). The brains were removed via standard dissection techniques and each was postfixed in 3.2% paraformaldehyde (20 ml) for 24-48 hours at room temperature in sealed scintillation vials.
2) Serial 50 micron sections were collected through the anterior posterior extent of the brain, from just behind the olfactory bulb, through visual cortex using a vibrating microtome, the V-STAR (described in International Publication No. WO 2013/012799 and U.S. Pat. No. 8,967,024 both of which are incorporated herein by reference in their entirety). Sections were collected in phosphate buffered saline (PBS). Vibratome speed was set to 1.1 mm/s and amplitude was set to 0.8 mm.
3) A series of every 24th section was removed for staining yielding 5 sections per brain.
1) Tissue sections were stained using an automated system for processing blots (hereinafter the “blotinator”) (described in WO2011/087646 and U.S. Pat. Nos. 8,337,754 and 8,679,406 each of which is incorporated herein by reference in its entirety). Brain sections were placed in the blotinator plate and bathed in PBS. The blotinator applied primary antibodies (MOG and MBP together) and Hoechst nuclear stain for 12 hours at room temperature with constant shaking.
The following stains were diluted in blocking buffer (described below):
Hoechst nuclear stain (0.5 mg/ml)(bisBenzimide H 33342 trihydrochloride Sigma #33342).
Myelin basic Protein (MBP) antibody (Abcam Cat # ab7349) was diluted at a 1:750 ratio in blocking buffer).
Myelin Oligodendrocyte Glycoprotein (MOG) (R&D systems Cat # AF2439) was diluted at a 1:250 ratio in blocking buffer.
Antibodies were diluted in blocking buffer, which consisted of 0.3% Triton X-100 (Sigma Cat #234729), 0.02% Sodium Azide (Sigma Cat # S2002) and 8% fetal bovine serum in PBS (Sigma Cat # F2442).
2) The blotinator washed the samples 4 times for 5 minutes each with a wash buffer (0.2% Triton X-100 in PBS).
3) The blotinator applied secondary antibodies diluted in blocking buffer and incubated them for 2 hours with constant shaking.
Alexa 488 donkey anti-rat secondary (Life technologies Cat # A-21208) was diluted at 1:1000 in blocking buffer. […]

[2] = tested on: primary rat mixed cortical cells; assay: In vitro myelination assay (MBP positive myelin strands, fold myelin pixels above background); type: cell-based; conditions: Rattus norvegicus, relative to baseline of no added compound; for fold induction at 1 µM: 1.0 μM compound; for fold induction at 10 µM: 10.0 μM compound
Summary of the method: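 Mixed cortical culture, P1 rat, 87,500-95,000 cells/well; compound present from seeding, refreshed days 6 and 10; 14 d, 37 °C, 5% CO2. Day 14: PFA fix, anti-MBP + Hoechst. Read-out: fold MBP myelin pixels over untreated, tested at 1.0 and 10.0 μM.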

[3] = read-out: Fold myelin pixels above background, 1.0 μM
[4] = read-out: Fold myelin pixels above background, 10.0 μM
[5] = read-out: Fold myelin pixels above background

SMILES | effect measured as new myelin generated in response to compound treatment compared to control with no added compound [1] | effect (new myelin generated compared to control) ([1]; 30 mpk) | effect (new myelin generated compared to control) ([1]; 90 mpk) | fold induction at 1 µM [2, 3] | fold induction at 10 µM [2, 4] | effect (new myelin generated compared to control) ([1]; 60 mpk) | effect (new myelin generated compared to control) ([1]; 100 mpk) | effect (new myelin generated compared to control) ([1]; 10 mpk) | effect (new myelin generated compared to control) ([1]; 25 mpk) | effect (new myelin generated compared to control) ([1]; 50 mpk) | effect (new myelin generated compared to control) ([1]; 20 mpk) | effect (new myelin generated compared to control) ([1]; 40 mpk) | fold induction at 1 µM [2, 5] | fold induction at 10 µM [2, 5] | effect (new myelin generated compared to control) ([1]; 8 mpk)
CCc1cc(Nc2ncn(-c3cc(F)cc(F)c3)n2)cc(N2CCN(C3COC3)CC2)c1 [Compound 107, 1-(3,5-difluorophenyl)-N-[3-ethyl-5-[4-(oxetan-3-yl)piperazin-1-yl]phenyl]-1,2,4-triazol-3-amine] | positive effect | positive effect | positive effect | 1000 to 10000 | 1000 to 10000 | – | – | – | – | – | – | – | – | – | –
Cc1cc(Nc2ncn(-c3cnccn3)n2)cc(N2CCN(C3COC3)CC2)c1 [Compound 195, N-[3-methyl-5-[4-(oxetan-3-yl)piperazin-1-yl]phenyl]-1-pyrazin-2-yl-1,2,4-triazol-3-amine] | positive effect | – | – | 100 to 1000 | 100 to 1000 | positive effect | positive effect | – | – | – | – | – | – | – | –
Cc1cc(Nc2ncn(-c3cc(F)cc(F)c3)n2)cc(N2CCN(C3(C)COC3)CC2)c1 [Compound 215, 1-(3,5-difluorophenyl)-N-[3-methyl-5-[4-(3-methyloxetan-3-yl)piperazin-1-yl]phenyl]-1,2,4-triazol-3-amine] | positive effect | positive effect | positive effect | 10 to 100 | 10 to 100 | – | – | – | – | – | – | – | – | – | –
Cc1cc(Nc2ncn(-c3ccccc3)n2)cc(N2CCN(C)CC2)c1 [Compound 247, N-[3-methyl-5-(4-methylpiperazin-1-yl)phenyl]-1-phenyl-1,2,4-triazol-3-amine] | positive effect | – | – | 100 to 1000 | ≤ 1 | – | – | positive effect | positive effect | positive effect | – | – | – | – | –
Cc1cc(Nc2ncn(-c3cc(F)cc(F)c3)n2)nc(N2CCN(C3COC3)CC2)c1 [Compound 331, N-[1-(3,5-difluorophenyl)-1,2,4-triazol-3-yl]-4-methyl-6-[4-(oxetan-3-yl)piperazin-1-yl]pyridin-2-amine] | positive effect | positive effect | – | 1 to 10 | 10 to 100 | – | – | – | – | – | positive effect | positive effect | – | – | –
Cc1cc(Nc2ncn(-c3cccc(F)c3)n2)cc(N2CCN(C3COC3)CC2)c1 [Compound 406, 1-(3-fluorophenyl)-N-[3-methyl-5-[4-(oxetan-3-yl)piperazin-1-yl]phenyl]-1,2,4-triazol-3-amine] | positive effect | – | – | – | – | – | – | – | positive effect | positive effect | – | – | 1000 to 10000 | ≤ 1 | –
Cc1cc(Nc2ncn(-c3cc(F)cc(F)c3)n2)cc(N2CC(N3CCOCC3)C2)c1 [Compound 485, 1-(3,5-difluorophenyl)-N-[3-methyl-5-(3-morpholinoazetidin-1-yl)phenyl]-1,2,4-triazol-3-amine] | positive effect | positive effect | – | – | – | – | – | – | – | – | positive effect | – | 10 to 100 | 1 to 10 | –
Fc1cc(F)cc(-n2cnc(Nc3cc(C(F)F)cc(N4CCN(C5COC5)CC4)n3)n2)c1 [Compound 512, 4-(difluoromethyl)-N-[1-(3,5-difluorophenyl)-1,2,4-triazol-3-yl]-6-[4-(oxetan-3-yl)piperazin-1-yl]pyridin-2-amine] | positive effect | – | – | – | – | – | – | – | – | positive effect | – | – | 100 to 1000 | 100 to 1000 | –
Fc1ccc(-n2cnc(Nc3cc(C(F)F)cc(N4CCN(C5COC5)CC4)n3)n2)cc1F [Compound 524, 4-(difluoromethyl)-N-[1-(3,4-difluorophenyl)-1,2,4-triazol-3-yl]-6-[4-(oxetan-3-yl)piperazin-1-yl]pyridin-2-amine] | positive effect | positive effect | – | – | – | – | – | positive effect | – | – | positive effect | – | 100 to 1000 | 100 to 1000 | –
Cc1cc(Nc2ncn(-c3cc(F)cc(F)c3)n2)c(F)c(N2CCN(C3COC3)CC2)c1 [Compound 691, 1-(3,5-Difluorophenyl)-N-(2-fluoro-5-methyl-3-(4-(oxetan-3-yl)piperazin-1-yl)phenyl)-1H-1,2,4-triazol-3-amine] | positive effect | – | – | – | – | – | – | positive effect | – | – | positive effect | – | 10 to 100 | 10 to 100 | positive effect
